Literature values as cited in patent publication US20190352602A1, “Methods and Compositions for Producing Germ Cells from Bone Marrow Derived Germline Stem Cells” (The General Hospital Corporation, priority 2004, published 2019).

System: irradiated testicular tissue
Conditions: irradiated testicular tissue treated with S1P vs untreated tissues

CCCCCCCCCCCCC/C=C/[C@@H](O)[C@@H](N)COP(=O)(O)O [S1P, Sphingosine-1-phosphate]
numbers of primary spermatocytes and spermatogonia: higher than untreated tissues
